Entries after “also recorded” stand apart in the source; their conditions may differ. Non-standard residues stand in square brackets, D forms with d. Residues, ends and D or L forms follow the SMILES beside them. dDip = N[C@@H](C(=O)O)C(c1ccccc1)c1ccccc1
Legend:
apoE deficient mice = test: In vivo activity in apoE deficient mice: HDL inflammatory index; conditions: 1 mg/kg subcutaneously, fasting female apoE deficient mice, HDL isolated 6 h after dose, normalized to LDL; Figure 3
Procedure: As previously described, [64], HAEC cells were treated with native LDL (250 µg/ml) in the absence or presence of HDL or tested peptides for 8 h. After these cultures were washed, the medium was replaced by fresh Medium 199 and the cultures were incubated for an additional 8 h. This culture medium was collected and assayed for monocyte chemotactic activity using chambers purchased from Neuroprobe (Cabin John, MD). After monocytes were added to the upper compartment, the chamber was incubated for 60 min at 37°C and subsequently disassembled. The membrane was rinsed, air dried, fixed with 1% glutaraldehyde, stained with 0.1% crystal violet dye, and 12 standardized high power fields were examined microscopically. The number of migrated monocytes was expressed as the mean ±SD of monocytes counted. Values obtained in the absence of HDL were normalized to a value of 1.0. Normalized values >1.0 after HDL addition were considered to be pro-inflammatory, and values <1.0 as being anti-inflammatory.
ApoE null mice on a C57BL/6J background, originally from Jackson Laboratories (Bar Harbor, ME), were maintained in a breeding colony in the Department of Laboratory and Animal Medicine at the David Geffen School of Medicine at UCLA. The mice were maintained on a chow diet (Ralston Purina, St. Louis, MO).
Six hours later, and with continued fasting, blood was removed from the retro-orbital sinus under mild isoflurane anesthesia, and anticoagulated with heparin (2.5 U/ml). Plasma was obtained and fractionated by FPLC. HDL-containing fractions were tested in HAEC cultures for their ability to inhibit LDL-induced monocyte chemotactic activity. All procedures conformed to regulations of the UCLA Animal Research Committee. An HDL inflammatory index was determined using the standard monocyte chemotaxis assay. Indices >1 were interpreted as pro-inflammatory, and indices <1 as anti-inflammatory.

[1] = SPR binding to arachidonic acid
Procedure: (§1) Binding experiments were done by surface plasmon resonance (SPR) on a BIAcore 3000 system (BiaCore AB, Piscataway, NJ). Peptide ligands and apoA-I were immobilized on a BIAcore CM5 sensor chip activated per the manufacturer's protocol with N-hydroxysuccinimide and 1-ethyl-3-(3-[…]) carbodiimide. After achieving adequate immobilization, the activated sensor surface was blocked with ethanolamine.
(§2) Lipid stock solutions were prepared in absolute ethanol and then diluted into a standard BIAcore buffer (HBS-EP), containing 10 mM HEPES, pH 7.4, 150 mM NaCl, 3 mM EDTA and 0.005% (v/v) surfactant P20. Lipid concentrations used in the binding studies were selected to give binding responses of 30-500 resonance units. Lipid stock solutions were prepared at 1 mg/ml in ethanol. […] Ethanol-free HBS-EP buffer was used during the dissociation phase. Lipid binding was measured by observing the change in the SPR angle as 150 µl of lipid analyte (various concentrations) in HBS-EP buffer flowed over the biosensor for 3 min at 50 µl/min. Biosensors were washed with 25 or 50% ethanol to regenerate them between binding studies. SPR data were corrected for background binding to the matrix of the chip (“blank” channel) and analyzed with BIAevaluation 4.1 software (Biacore, Piscataway, NJ).

[2] = SPR binding to linoleic acid
Procedure: as §1, §2

[3] = SPR binding to palmitic acid
Procedure: as §1, §2

SPR binding to PGPC = test: SPR binding to PGPC
Procedure: as §1, §2

SPR binding to POVPC = test: SPR binding to POVPC
Procedure: as §1, §2

SPR binding to PEIPC = test: SPR binding to PEIPC
Procedure: as §1, §2

SPR binding to KOdiA-PC = test: SPR binding to KOdiA-PC
Procedure: as §1, §2

[4] = SPR binding to 5(S)-HPETE
Procedure: as §1, §2

[5] = SPR binding to 12(S)-HPETE
Procedure: as §1, §2

[6] = SPR binding to 15(S)-HPETE
Procedure: as §1, §2

[7] = SPR binding to 13(S)-HPODE
Procedure: as §1, §2

[8] = SPR binding to 12(S)-HETE
Procedure: as §1, §2

[9] = SPR binding to 15(S)-HETE
Procedure: as §1, §2

SPR binding to 9(S)-HODE = test: SPR binding to 9(S)-HODE
Procedure: as §1, §2

[10] = SPR binding to 13(S)-HODE
Procedure: as §1, §2

[11] = SPR binding to cholesterol; conditions: peptide immobilized on CM5 chip, sterol in HBS-EP pH 7.4, mean ± SEM
Procedure: as §1, §2

[12] = SPR binding to 20(S)-hydroxycholesterol
Procedure: as §1, §2

[13] = SPR binding to 22(S)-hydroxycholesterol
Procedure: as §1, §2

[14] = SPR binding to 24(S)-hydroxycholesterol
Procedure: as §1, §2

[15] = SPR binding to 25-hydroxycholesterol; conditions: peptide immobilized on CM5 chip, sterol in HBS-EP pH 7.4, mean ± SEM
Procedure: as §1, §2

[16] = SPR binding to 4β-hydroxycholesterol; conditions: peptide immobilized on CM5 chip, sterol in HBS-EP pH 7.4, mean ± SEM
Procedure: as §1, §2

Bovine albumin = molecular target: T1, Bovine albumin (Bos taurus, UniProt P02769); test: SPR binding to bovine albumin (control); conditions: peptide immobilized on CM5 chip, analyte in HBS-EP pH 7.4, mean ± SEM
T1 construct: purchased Sigma-Aldrich
Procedure: as §1, §2

[17] = KD(D-4F)/KD(OxP-11D), >1: OxP-11D binds with higher affinity
[18] = SPR, peptide immobilized on CM5 chip, lipid in HBS-EP pH 7.4, mean ± SEM
[19] = based on the KD ratios of Table 3
[20] = SPR, peptide immobilized on CM5 chip, sterol in HBS-EP pH 7.4, mean ± SEM

T1 sequence (P02769 25-607): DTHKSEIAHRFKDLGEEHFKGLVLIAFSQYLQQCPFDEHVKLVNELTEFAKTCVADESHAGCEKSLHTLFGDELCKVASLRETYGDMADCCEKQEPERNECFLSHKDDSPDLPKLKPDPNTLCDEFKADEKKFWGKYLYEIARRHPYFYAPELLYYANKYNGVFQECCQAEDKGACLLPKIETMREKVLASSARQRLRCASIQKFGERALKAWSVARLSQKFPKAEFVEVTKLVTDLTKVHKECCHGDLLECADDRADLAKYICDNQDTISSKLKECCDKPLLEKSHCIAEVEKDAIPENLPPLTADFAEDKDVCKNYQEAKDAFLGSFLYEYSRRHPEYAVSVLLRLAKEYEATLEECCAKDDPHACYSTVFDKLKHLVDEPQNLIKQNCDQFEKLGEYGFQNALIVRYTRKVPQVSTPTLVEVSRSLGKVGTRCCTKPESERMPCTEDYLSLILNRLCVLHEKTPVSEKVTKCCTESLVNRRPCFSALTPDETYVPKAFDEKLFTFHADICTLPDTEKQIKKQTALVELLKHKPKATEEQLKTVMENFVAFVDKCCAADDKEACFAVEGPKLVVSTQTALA

With `CC(C)C[C@@H](NC(=O)CNC(=O)[C@H](NC(=O)[C@H](NC(=O)[C@@H](CCC(=O)O)NC(=O)[C@H](N)CCCNC(=N)N)C(c1ccccc1)c1ccccc1)[C@H](C)O)C(=O)N[C@H](C)C(=O)N[C@H](Cc1c[nH]c2ccccc12)C(=O)N[C@H](CCC(=O)O)C(=O)N[C@H](Cc1c[nH]c2ccccc12)C(=O)N[C@H](Cc1c[nH]c2ccccc12)C(=O)N[C@H](CCCNC(=N)N)C(=O)N[C@@H](C(=O)N[C@@H](C(N)=O)C(C)C)[C@H](C)O` [OxP-11D] (H-[dR][dE][dDip][dT]G[dL][dA][dW][dE][dW][dW][dR][dT][dV]-NH2; N-terminus assumed) the “HDL Inflammatory Index in vivo” value (apoE deficient mice) was “activity rivaled D-4F; also recorded: equally effective”, the “D-4F/OxP-11D KD Ratio, arachidonic acid” value [1, 17] was 0.012 and the Kd [1, 18] was 970 nM. For the same compound, the “D-4F/OxP-11D KD Ratio, linoleic acid” value [2, 17] was 0.025, the Kd [2, 18] was 600 nM and the “D-4F/OxP-11D KD Ratio, palmitic acid” value [3, 17] was 2.030. For the same compound, the Kd [3, 18] was 330 nM, the “D-4F/OxP-11D KD Ratio, PGPC” value (SPR binding to PGPC; [17]) was 0.002 and the Kd (SPR binding to PGPC; [18]) was 3.2 µM. The “D-4F/OxP-11D KD Ratio, POVPC” value (SPR binding to POVPC; [17]) was 0.008, the Kd (SPR binding to POVPC; [18]) was 300 nM and the “D-4F/OxP-11D KD Ratio, PEIPC” value (SPR binding to PEIPC; [17]) was 0.005. For the same compound, the Kd (SPR binding to PEIPC; SPR binding isotherm, Figure 5B, biosensor presented 4686 RU of OxP-11D) was 12.4 ± 4.4 nM, the “D-4F/OxP-11D KD Ratio, KOdiA-PC” value (SPR binding to KOdiA-PC; [17]) was 0.003 and the Kd (SPR binding to KOdiA-PC; [18]) was 190 nM. The “D-4F/OxP-11D KD Ratio, 5(S)-HPETE” value [4, 17] was 1.059, the Kd ([4]; SPR binding isotherm, Figure 5D, biosensor presented 4686 RU of OxP-11D) was 16.9 ± 4.8 nM and the “Affinity for 5(S)-HPETE relative to affinity for arachidonic acid” value [4, 19] was “approximately 57 fold”. For the same compound, the “D-4F/OxP-11D KD Ratio, 12(S)-HPETE” value [5, 17] was 5.000, the Kd ([5]; SPR binding isotherm, Figure 5C, biosensor presented 4686 RU of OxP-11D) was 34.4 ± 10.1 nM and the “Affinity for 12(S)-HPETE relative to affinity for arachidonic acid” value [5, 19] was “approximately 28.5 fold”. For the same compound, the “D-4F/OxP-11D KD Ratio, 15(S)-HPETE” value [6, 17] was 1.133, the Kd [6, 18] was 45 nM and the “D-4F/OxP-11D KD Ratio, 13(S)-HPODE” value [7, 17] was 0.677. The Kd [7, 18] was 31 nM, the “D-4F/OxP-11D KD Ratio, 12(S)-HETE” value [8, 17] was 0.375 and the Kd [8, 18] was 48 nM. The “D-4F/OxP-11D KD Ratio, 15(S)-HETE” value [9, 17] was 0.236, the Kd [9, 18] was 93 nM and the “D-4F/OxP-11D KD Ratio, 9(S)-HODE” value (SPR binding to 9(S)-HODE; [17]) was 0.714. The Kd (SPR binding to 9(S)-HODE; [18]) was 21 nM, the “D-4F/OxP-11D KD Ratio, 13(S)-HODE” value [10, 17] was 2.895 and the Kd [10, 18] was 3.8 nM. For the same compound, the Kd [11] was 360 nM, the “D-4F/OxP-11D KD Ratio, 20(S)-hydroxycholesterol” value [12, 17] was 7.647 and the Kd [12, 20] was 510 nM. For the same compound, the “D-4F/OxP-11D KD Ratio, 22(S)-hydroxycholesterol” value [13, 17] was 33.333, the Kd [13, 20] was 450 nM and the “D-4F/OxP-11D KD Ratio, 24(S)-hydroxycholesterol” value [14, 17] was 17.917. The Kd [14, 20] was 240 nM, the “KD ± SEM, 25-hydroxycholesterol” value [15] was “BND” and the “KD ± SEM, 4β-hydroxycholesterol” value [16] was “BND”. It also gave a Kd (Bovine albumin) of 690 nM.
